Laboratory results from patent US20220031798A1, “METHODS AND COMPOSITIONS FOR THE TREATMENT OF OPIOID DEPENDENCE AND FOR THE TREATMENT OF PAIN” (Duke University, priority 2018, published 2022).
Entries after “also recorded” stand apart in the source; their conditions may differ. Residues, ends and D or L forms follow the SMILES beside them.

Experiments:
[1] = tested on: morphine-dependent Sprague-Dawley rats; test: Naloxone-precipitated opioid withdrawal signs after 5-day morphine regimen; assay type: in vivo, rat; settings: for Withdrawal signs after naloxone challenge on Day 9: Study 2: adolescent male and female rats, 5 days morphine, then 3 days ketamine 1 mg/kg bid or rapastinel 5 mg/kg alternate days i.p., naloxone 1 mg/kg; for Withdrawal signs after naloxone challenge on day 9, adolescent vs adult: Study 3: adolescent and adult rats
Procedure: Male and female adolescent and adult Sprague-Dawley rats (PN 28-30 and PN 60-75) from Charles River Laboratories were treated with a 5-day, increasing dose morphine regimen (5 mg/kg bid, increasing 5 mg/kg/day to 25 mg/kg) to induce opioid dependency. Animals were group-housed in a 12/12 light/dark cycle with free access to water and standard lab chow. Agents were administered by intraperitoneal injection. In Study 1, animals received morphine (25 mg/kg) on day 6 followed 1 hour later by a naloxone challenge (1 mg/kg) and withdrawal behaviors were quantified as described by Gellert and Holtzman (J Pharmacol Exp Ther. 1978; 205(3):536-546). A second morphine/naloxone challenge was given 21 days later (study day 27). In Study 2 (see FIG. 1), male and female adolescent rats received the same morphine treatment, but on day 6 they received naloxone only (1 mg/kg) to precipitate withdrawal and withdrawal signs (wet dog shakes, diarrhea, mastication, salivation, ptosis and abnormal posture) were assessed as in Study 1. Then animals received saline, ketamine (1 mg/kg, bid) or rapastinel (5 mg/kg on alternate days). On day 9, animals received a second naloxone challenge (1 mg/kg) without a previous morphine treatment, and withdrawal signs were quantified to measure efficacy of ketamine and rapastinel. Study 3 compared the ability of rapastinel to accelerate the loss of opioid withdrawal signs in adult and adolescent rats and Study 4 compared rapastinel effects in male and female adults. Treatment results were analyzed by sequential 3-way (age×sex×treatment) and 1 way (treatment) ANOVA using NCSS followed by post-hoc Fishers LSD multiple comparison test to compare differences between groups. All experiments were approved by the Duke University IACUC and conducted in accordance with the NIH Guide for the Care and Use of Laboratory Animals.
Opioid withdrawal: Animals are treated with saline or naloxone as described. Ten minutes later they are scored by a modification of the Gellert/Holtzman scale for wet dog shakes, diarrhea, mastication, salivation, ptosis and abnormal posture.

morphine-dependent rats = test: Withdrawal-precipitated hyperalgesia, von Frey test of pain sensitivity; assay type: in vivo, rat
Description: FIG. 6. Schematic for withdrawal-precipitated hyperalgesia studies and schematic for von Frey test of pain sensitivity.
There was no difference in hyperalgesia caused by morphine withdrawal before treatment; there was significant expression of naloxone-precipitated hyperalgesia in morphine dependent animals.

GluR1 = GluR1 expression in medial prefrontal cortex by Western blot; assay type: in vivo, rat; settings: mPFC dissected at end of treatment
Procedure: The medial prefrontal cortex (mPFC) Brain Region is responsible for decision making in the context of reward (opioids) and penalty (withdrawal). Rats were treated with morphine in accordance with the methods of Example 1. The mPFC was dissected from rats at end of treatment and GluR1 expression levels were measured with a Western Blot test.

[2] = tested on: adult male and female rats; test: Relapse to morphine conditioned place preference (CPP); assay type: in vivo, rat; settings: rapastinel 5 mg/kg during extinction days 6-9 and before relapse test, morphine 2.5 mg/kg
Procedure: CPP and extinction were conducted in adult male and female rats with a biased CPP procedure adapted from Mueller et al. (Mueller et al., Behavior. Brain Res 136: 389-397(2002)). CPP is conducted in a two-sided chamber. Side 1 had white walls and plexiglass flooring, and Side 2 had black walls and plastic mesh flooring (preferred side).
Rats went through a conditioned place preference procedure involving daily pairing with saline and morphine (2.5 mg/kg) on opposite sides of the CPP apparatus for 4 days. On habituation day (day 1), animals were allowed to explore the whole apparatus for 30 minutes. On days 2-4, rats were restricted to Side 1 for morphine (2.5 mg/kg sc) and Side 2 for saline (alternated am and pm daily). On day 5 they received a test of conditioning in which they were allowed to explore the whole apparatus. For the next 4 days (days 6-9) they received daily saline or rapastinel (5 mg/kg) 30 minutes before twice daily extinction trials in which animals received saline on both sides of the apparatus. They received an extinction test in which they were allowed to explore the entire apparatus on day 10, and then a relapse test on day 11 in which they received a dose of saline or rapastinel, followed by saline or 2.5 mg/kg of morphine and were allowed to explore the apparatus.
N=5 for rapastinel and 3 for saline.

[3] = animal models (Moskal et al., 2016); cited from earlier work
[4] = animal models; cited from earlier work
[5] = humans; cited from earlier work

C[C@@H](O)[C@H](N)C(=O)N1CCCC1C(=O)N1CCC[C@H]1C(=O)N[C@H](C(N)=O)[C@@H](C)O (stereo partly drawn) [Rapastinel, rapastinel] (HELM PEPTIDE1{T.[O=C(C1CCCN1[*:1])[*:2]].P.T.[am]}$$$$V2.0)
Withdrawal signs after naloxone challenge on Day 9 [1]: extinguished naloxone-precipitated withdrawal; also recorded: caused an enhanced loss of opioid withdrawal signs; also recorded: accelerated loss of withdrawal signs
Withdrawal signs after naloxone challenge on day 9, adolescent vs adult ([1]; 5 days morphine then 3 days saline or rapastinel): extinguished naloxone-precipitated withdrawal comparably in adolescent and adult rats; also recorded: accelerated extinction of opioid withdrawal at both ages; also recorded: significantly enhanced recovery from opioid dependence in both adolescent and adult rats
Withdrawal signs after naloxone challenge on day 9, adolescent vs adult ([1]; 5 days morphine then 3 days saline or rapastinel, listed as rapastinel): effective
Withdrawal signs after naloxone challenge on day 9, male vs female ([1]; Study 4: male and female rats, 5 days morphine then 3 days saline or rapastinel): extinguished naloxone-precipitated withdrawal comparably in male and female rats
Hyperalgesia scores (morphine-dependent rats; morphine-dependent rats, Day 9 following treatment): trend towards a return to baseline (SS) hyperalgesia scores; also recorded: blunts hyperalgesia
Baseline (SS) hyperalgesia response (morphine-dependent rats; saline (morphine-naive) rats): does not alter baseline (SS) response
GluR1 expression in the mPFC (GluR1): no significant effect
Difference in time spent on drug-paired side, day 11 (relapse test) vs day 10 (extinction trial) [2]: blocks relapse to conditioned place preference
Difference in time spent on drug-paired side, day 11 (relapse test) vs day 10 (extinction trial) ([2]; listed as rapastinel): blunted morphine-induced relapse
Negative side effects during treatment [3]: has not been shown to produce any negative side effects

N[C@@H]1CON=C1O [d-cycloserine]
CPP extinction and naloxone place aversion [4]: facilitated CPP extinction and naloxone place aversion
Half-life [5]: short half-life

CNC1(c2ccccc2Cl)CCCCC1=O (stereo not drawn) [ketamine]
Withdrawal signs after naloxone challenge on Day 9 [1]: not ketamine extinguished naloxone-precipitated withdrawal; also recorded: not ketamine caused an enhanced loss of opioid withdrawal signs; also recorded: not ketamine accelerated loss of withdrawal signs; also recorded: only marginally effective

CN1CC[C@]23c4c5ccc(O)c4O[C@H]2[C@@H](O)C=C[C@H]3[C@H]1C5 [morphine]
GluR1 expression in the mPFC (GluR1): higher expression of GluR1; also recorded: significantly (p<0.001) higher GluR1 expression

C=CCN1CC[C@]23c4c5ccc(O)c4O[C@H]2C(=O)CC[C@@]3(O)[C@H]1C5 [naloxone]
Withdrawal response to morphine/naloxone challenge on Day 6 ([1]; Study 1: 5 days morphine, morphine 25 mg/kg then naloxone 1 mg/kg 1 hour later, adolescent and adult rats): elicited a robust withdrawal response
